What was measured:
Raw 264.7 cell line = test: NO scavenging activity in LPS-treated immune cells (Griess reagent); assay type: cell-based; settings: Mus musculus, RAW264.7, Raw 264.7, LPS 500 ng/mL, 24 hours, read-out: NO Scavenging Activity (%) (Mean±SD)
[1] = DAF-2 assay of NO scavenging activity (NO donor SNAP); assay type: biochemical; settings: DAF-2 10 µM, SNAP 100 µM, PBS, 3 hours, 37°C
Procedure: NO scavenging activity of the pharmaceutical composition sensitive to nitrogen monoxide including the compound according to each of Examples 1 to 22, 29 to 31, and 33 to 35 was evaluated through a DAF-2 assay.
Specifically, a reagent stock solution was made using DMSO (dimethyl sulfoxide) in order to prepare 5 mM of DAF-2, 100 mM of SNAP and 5 mM of the compound synthesized in each of the Examples, and for the reaction, the solution was added to a PBS (phosphate buffered saline) solution so that DAF-2, SNAP and the compound had final concentrations of 10 µM, 100 µM and the concentration of Table 1, respectively, followed by a reaction for 3 hours in a 37°C incubator.

splenocytes [2] = test: NO scavenging activity in Concanavalin A-treated splenocytes (Griess assay); assay type: cell-based, C57BL/6 mouse; settings: Mus musculus, Splenocyte, Concanavalin A 5 µg/mL, 72 hours, read-out: NO Scavenging Activity (%) (Mean±SD)
Procedure: (§1) A spleen was isolated from an 8-week-old C57BL/6 mouse, and splenocytes were isolated using a physical method.
(§2) The separated splenocytes were diluted to a concentration of 5×10^6 cells/mL in a RPMI 1640 medium including 10% FBS, 100 U/mL of penicillin and 100 µg/mL of streptomycin, and the diluted splenocytes were dispensed at 500 µL/well into a 48-well plate and 100 µL/well into a 96-well plate, and cultured for 72 hours in an incubator. The splenocytes were treated with Concanavalin A (5 µg/mL) when dispensed to induce an immune response, and herein, […] of the pharmaceutical composition including the compound according to each of the Examples was also added thereto. After 72 hours, the supernatant was collected, and the level of remaining NO was checked through a Griess assay, and calculated by the following Equation 4.

IFN-γ = IFN-γ reduction activity in Concanavalin A-treated splenocytes (quantitative ELISA); assay type: cell-based, C57BL/6 mouse; settings: Mus musculus, Splenocyte, Concanavalin A 5 µg/mL, 72 hours, read-out: IFN-γ Reduction Activity (%) (Mean±SD)
Procedure: as §1, §2
NO is one of important inflammatory mediators, and may increase the level of inflammatory cytokine. Concanavalin A (5 µg/mL), which induces an immune response in splenocytes, and the compound of each of Examples were treated in a concentration-dependent manner to check whether the level of IFN-γ, a representative inflammatory cytokine, was reduced. The supernatant was collected 72 hours after the treatment, and analyzed using a quantitative enzyme-linked immunosorbent assay (Quantitative-ELISA).

splenocytes [3] = test: Inhibitory activity on cell proliferation in splenocytes (CCK-8 analysis); assay type: cell-based, C57BL/6 mouse; settings: Mus musculus, Splenocyte, Concanavalin A 5 µg/mL, 72 hours, read-out: Inhibitory Activity on Cell Proliferation (%) (Mean±SD)
JAK 1 = JAK 1 (Homo sapiens, UniProt P23458); test: JAK Human TK kinase enzymatic radiometric assay (Eurofins), JAK 1; settings: value close to 100 indicates low JAK activity of the compound
Chain of JAK 1 (P23458 whole entry): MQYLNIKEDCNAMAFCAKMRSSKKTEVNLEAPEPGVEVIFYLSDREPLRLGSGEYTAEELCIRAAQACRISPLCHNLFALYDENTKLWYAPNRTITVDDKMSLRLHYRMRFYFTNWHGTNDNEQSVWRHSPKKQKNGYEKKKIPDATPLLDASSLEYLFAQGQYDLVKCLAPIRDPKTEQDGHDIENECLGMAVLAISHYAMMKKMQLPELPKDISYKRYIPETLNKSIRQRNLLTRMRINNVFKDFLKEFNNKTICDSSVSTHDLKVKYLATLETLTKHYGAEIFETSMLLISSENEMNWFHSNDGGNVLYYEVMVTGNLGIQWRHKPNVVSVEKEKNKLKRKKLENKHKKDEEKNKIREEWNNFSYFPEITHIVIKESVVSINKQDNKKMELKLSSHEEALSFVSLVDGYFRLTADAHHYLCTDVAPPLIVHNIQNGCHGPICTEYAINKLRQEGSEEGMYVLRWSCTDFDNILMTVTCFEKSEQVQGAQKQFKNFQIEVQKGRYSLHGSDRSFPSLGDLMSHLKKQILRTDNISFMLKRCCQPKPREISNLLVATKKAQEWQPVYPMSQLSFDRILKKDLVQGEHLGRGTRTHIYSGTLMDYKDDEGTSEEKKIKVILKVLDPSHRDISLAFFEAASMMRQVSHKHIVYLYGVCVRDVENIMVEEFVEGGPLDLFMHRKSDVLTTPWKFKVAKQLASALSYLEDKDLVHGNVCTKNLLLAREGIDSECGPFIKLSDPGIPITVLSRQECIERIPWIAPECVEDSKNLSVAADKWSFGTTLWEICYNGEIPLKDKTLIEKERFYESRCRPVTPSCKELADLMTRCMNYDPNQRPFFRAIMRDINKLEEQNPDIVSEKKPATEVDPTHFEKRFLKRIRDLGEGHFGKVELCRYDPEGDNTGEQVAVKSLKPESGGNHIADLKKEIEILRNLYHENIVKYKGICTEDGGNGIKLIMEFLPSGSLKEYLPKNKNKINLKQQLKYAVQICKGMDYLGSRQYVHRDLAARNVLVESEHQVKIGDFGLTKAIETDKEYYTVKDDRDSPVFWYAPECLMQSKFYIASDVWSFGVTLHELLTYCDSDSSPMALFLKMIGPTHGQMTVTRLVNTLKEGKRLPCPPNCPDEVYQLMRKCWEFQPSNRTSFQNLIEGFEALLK
Description: For the compounds of the Examples, JAK activity of each of the compounds was verified using the JAK Human TK Kinase Enzymatic Radiometric Kinase Profiler Assay service provided by Eurofins Scientific.
The activity was verified after inducing a reaction at the JAK 1, 2 and 3 active sites using radioactively labeled ATP.

[4] = DAF-2 assay of NO scavenging activity without and with H2O2 (ROS); assay type: biochemical; settings: SNAP 100 µM, DAF-2 10 µM, 3 hours, 37°C; for NO Scavenging Activity (%) (Mean±SD) With H2O2: H2O2 1 mM

SMILES | activity at 10 µM (Raw 264.7 cell line) | NO Scavenging Activity (%) (Mean±SD) ([1]; compound 1 µM) | NO Scavenging Activity (%) (Mean±SD) ([1]; compound 5 µM) | NO Scavenging Activity (%) (Mean±SD) ([1]; compound 10 µM) | activity at 10 µM (splenocytes [2]) | activity at 10 µM (IFN-γ) | inhibition at 10 µM (splenocytes [3]) | JAK 1 Activity (JAK 1; 0.1 nM) | JAK 1 Activity (JAK 1; 1 nM) | JAK 1 Activity (JAK 1; 10 nM) | JAK 1 Activity (JAK 1; 100 nM) | NO Scavenging Activity (%) (Mean±SD) Without H2O2 ([4]; compound 1 µM) | NO Scavenging Activity (%) (Mean±SD) With H2O2 ([4]; compound 1 µM) | NO Scavenging Activity (%) (Mean±SD) Without H2O2 ([4]; compound 5 µM) | NO Scavenging Activity (%) (Mean±SD) With H2O2 ([4]; compound 5 µM) | NO Scavenging Activity (%) (Mean±SD) Without H2O2 ([4]; compound 10 µM) | NO Scavenging Activity (%) (Mean±SD) With H2O2 ([4]; compound 10 µM)
CC[C@@H]1CN(C(=O)NCC(F)(F)F)C[C@@H]1c1cnc2cnc3c(ccn3C(=O)Nc3ccc(N(C)C)cc3N)n12 [Example 30, N-(2-amino-4-(dimethylamino)phenyl)-8-((3R,4S)-4-ethyl-1-((2,2,2-trifluoroethyl)carbamoyl)pyrrolidin-3-yl)-3H-imidazo[1,2-a]pyrrolo[2,3-e]pyrazine-3-carboxamide] | 91.6 ± 0.68% | 83.14 ±2.29% | 86.44 ±1.93% | 88.19 ±1.75% | 98.1 ± 0.09% | 91.5 ± 1.37% | 55 ± 8.48% |  |  |  |  |  |  |  |  |  | 
C[C@@H]1CCN(C(=O)CC#N)C[C@@H]1N(C)c1ncnc2c1ccn2C(=O)N(C)CCN(C)C(=O)Nc1cc(N(C)C)ccc1N [Example 21, N-(2-(3-(2-amino-5-(dimethylamino)phenyl)-1-methylureido)ethyl)-4-(((3R,4R)-1-(2-cyanoacetyl)-4-methylpiperidin-3-yl) (methyl)amino)-N-methyl-7H-pyrrolo[2,3-d]pyrimidine-7-carboxamide] | 61.2 ± 0.15% | 2.57± 1.66% | 38.13 ±1.01% | 66.27 ±0.14% | 52.4 ± 0.67% | 98.1 ± 0.03% | 48.3 ± 3.72% | 97 | 105 | 102 | 85 |  |  |  |  |  | 
C[C@@H]1CCN(C(=O)CC#N)C[C@@H]1N(C)c1ncnc2c1ccn2C(=O)N(C)CCN(C)C(=O)Nc1cc(N(C)C)ccc1NC(=O)OCc1ccc(B(O)O)cc1 [Example 23, (4-((((2-(3-(2-(4-(((3R,4R)-1-(2-cyanoacetyl)-4-methylpiperidin-3-yl)(methyl)amino)-N-methyl-7H-pyrrolo[2,3-d]pyrimidine-7-carboxamido)ethyl)-3-methylureido)-4-(dimethylamino)phenyl)carbamoyl)oxy)methyl)phenyl)boronic acid] | 16.8 ± 0.7% |  |  |  | 19.5 ± 0.65% | 68 ± 0.45% | 11.8 ± 2.08% | 94 | 90 | 100 | 83 | 21.08 ±0.77% | 25.76 ±6.11% | 39.33 ±8.29% | 64.84 ±1.94% | 52.96 ±6.23% | 83.96 ±0.29%
CC[C@@H]1CN(C(=O)NCC(F)(F)F)C[C@@H]1c1cnc2cnc3c(ccn3C(=O)Nc3ccccc3N)n12 [Example 29, N-(2-aminophenyl)-8-((3R,4S)-4-ethyl-1-((2,2,2-trifluoroethyl)carbamoyl)pyrrolidin-3-yl)-3H-imidazo[1,2-a]pyrrolo[2,3-e]pyrazine-3-carboxamide] | 90.1 ± 0.74% | 3.68± 7.63% | 1.71± 4.16% | 25.18 ±3.14% | 88.5 ± 0.47% | 100% | 78 ± 6.9% |  |  |  |  |  |  |  |  |  | 
